# Source: patent US6399661B1, “Oral creatine supplement and method for making same” (priority 2000, dated 2002)
# Columns and labels:
# [1] = conversion of creatine to creatinine in solutions of different pH; format: physicochemical
# Description: FIG. 1 is a graph showing rate of creatinine formation from creatine as a function of pH;
# FIG. 2 is a graph showing rate of creatine loss as a function of time upon dissolution in different pH buffers; and
# FIG. 3 is a chart showing time in minutes for conversion of 1 g creatine to creatinine in 2 liter at given pH.
# The rate of creatinine formation from creatine as a function of pH is shown in FIG. 1 in accordance with research conducted by the inventor. In FIG. 2, the rate of creatine loss as a function of time upon dissolution in different pH buffers is shown.
# human body = details: 5 grams of creatine, 4-6 times a day, for two or more days, oral; cited from earlier work
# [2] = acidic solutions having a pH range of from 3-6; cited from earlier work
structure (smiles),measurement,setting,value
CN(CC(=O)O)C(=N)N [creatine],creatine remaining following dissolution in a pH buffer,"[1]; different pH buffers, as a function of time (FIG. 2)","the higher the pH, the higher the creatine remaining"
same,rate of conversion of one gram of creatine to creatinine,"[1]; various pH solutions, 1 g creatine in 2 liter (FIG. 3)",substantially slowed by increasing the pH of the solution
same,total creatine concentration,human body,significant increase
same,rate of conversion of creatine to creatinine,[2],almost instantaneous
